# Measurements as given in US20250312462A1, “PAK1 DEGRADERS AND METHODS OF USE THEREOF” (INSTITUTE FOR CANCER RESEARCH D/B/A THE RESEARCH INSTITUTE …, priority 2022, published 2025).
# Assays:
# Assay in all cases: KINOMEscan
# Conditions in all cases: read-out: Percent Control
# DAPK1 = DAPK1 (Homo sapiens, UniProt P53355)
# Protocol: (§1) The kinase engagement assay (KINOMEscan®) was performed by DiscoverX assessing binding abilities toward a set of kinases.
# MYO3B = MYO3B (Homo sapiens, UniProt Q8WXR4)
# Protocol: as §1
# DAPK3 = DAPK3 (Homo sapiens, UniProt O43293)
# Protocol: as §1
# CLK2 = CLK2 (Homo sapiens, UniProt P49760)
# Protocol: as §1
# PIM3 = PIM3 (Homo sapiens, UniProt Q86V86)
# Protocol: as §1
# FRK = FRK (Homo sapiens, UniProt P42685)
# Protocol: as §1
# p38-beta = p38-beta (Homo sapiens, UniProt Q15759)
# Protocol: as §1
# MAP4K2 = MAP4K2 (Homo sapiens, UniProt Q12851)
# Protocol: as §1
# PKMYT1 = PKMYT1 (Homo sapiens, UniProt Q99640)
# Protocol: as §1
# PRKCQ = PRKCQ (Homo sapiens, UniProt Q04759)
# Protocol: as §1
# PIK3CA = PIK3CA (Homo sapiens, UniProt P42336)
# Protocol: as §1
# HIPK1 = HIPK1 (Homo sapiens, UniProt Q86Z02)
# Protocol: as §1
# [1] = molecular target: RPS6KA5(Kin.Dom.2-C-terminal) (Homo sapiens, UniProt O75582)
# Protocol: as §1
# PIM2 = PIM2 (Homo sapiens, UniProt Q9P1W9)
# Protocol: as §1
# TAOK2 = TAOK2 (Homo sapiens, UniProt Q9UL54)
# Protocol: as §1
# MELK = MELK (Homo sapiens, UniProt Q14680)
# Protocol: as §1
# WNK2 = WNK2 (Homo sapiens, UniProt Q9Y3S1)
# Protocol: as §1
# HASPIN = HASPIN (Homo sapiens, UniProt Q8TF76)
# Protocol: as §1
# PDPK1 = PDPK1 (Homo sapiens, UniProt O15530)
# Protocol: as §1
# MLK3 = MLK3 (Homo sapiens, UniProt Q16584)
# Protocol: as §1
# PIK3CG = PIK3CG (Homo sapiens, UniProt P48736)
# Protocol: as §1
# SBK1 = SBK1 (Homo sapiens, UniProt Q52WX2)
# Protocol: as §1
# [2] = molecular target: RPS6KA4(Kin.Dom.1-N-terminal) (Homo sapiens, UniProt O75676)
# Protocol: as §1
# NEK7 = NEK7 (Homo sapiens, UniProt Q8TDX7)
# Protocol: as §1
# PAK6 = PAK6 (Homo sapiens, UniProt Q9NQU5)
# Protocol: as §1
# BIKE = BIKE (Homo sapiens, UniProt Q9NSY1)
# Protocol: as §1
# WNK3 = WNK3 (Homo sapiens, UniProt Q9BYP7)
# Protocol: as §1
# MYLK4 = MYLK4 (Homo sapiens, UniProt Q86YV6)
# Protocol: as §1
# MEK3 = MEK3 (Homo sapiens, UniProt P46734)
# Protocol: as §1
# EPHA8 = EPHA8 (Homo sapiens, UniProt P29322)
# Protocol: as §1
# BMPR1A = BMPR1A (Homo sapiens, UniProt P36894)
# Protocol: as §1
# AXL = AXL (Homo sapiens, UniProt P30530)
# Protocol: as §1
# [3] = molecular target: ABL1(Y253F)-phosphorylated (Homo sapiens, UniProt P00519, Y253F)
# Protocol: as §1
# EPHA2 = EPHA2 (Homo sapiens, UniProt P29317)
# Protocol: as §1
# CAMKK2 = CAMKK2 (Homo sapiens, UniProt Q96RR4)
# Protocol: as §1
# EPHB1 = EPHB1 (Homo sapiens, UniProt P54762)
# Protocol: as §1
# FLT3(R834Q) = FLT3(R834Q) (Homo sapiens, UniProt P36888, R834Q)
# Protocol: as §1
# PFCDPK1(P. falciparum) = molecular target: T1, PFCDPK1(P. falciparum) (Plasmodium falciparum, UniProt P62344); type: binding
# T1 construct: purchased DiscoverX
# PIK3CA, sequence (P42336 whole entry): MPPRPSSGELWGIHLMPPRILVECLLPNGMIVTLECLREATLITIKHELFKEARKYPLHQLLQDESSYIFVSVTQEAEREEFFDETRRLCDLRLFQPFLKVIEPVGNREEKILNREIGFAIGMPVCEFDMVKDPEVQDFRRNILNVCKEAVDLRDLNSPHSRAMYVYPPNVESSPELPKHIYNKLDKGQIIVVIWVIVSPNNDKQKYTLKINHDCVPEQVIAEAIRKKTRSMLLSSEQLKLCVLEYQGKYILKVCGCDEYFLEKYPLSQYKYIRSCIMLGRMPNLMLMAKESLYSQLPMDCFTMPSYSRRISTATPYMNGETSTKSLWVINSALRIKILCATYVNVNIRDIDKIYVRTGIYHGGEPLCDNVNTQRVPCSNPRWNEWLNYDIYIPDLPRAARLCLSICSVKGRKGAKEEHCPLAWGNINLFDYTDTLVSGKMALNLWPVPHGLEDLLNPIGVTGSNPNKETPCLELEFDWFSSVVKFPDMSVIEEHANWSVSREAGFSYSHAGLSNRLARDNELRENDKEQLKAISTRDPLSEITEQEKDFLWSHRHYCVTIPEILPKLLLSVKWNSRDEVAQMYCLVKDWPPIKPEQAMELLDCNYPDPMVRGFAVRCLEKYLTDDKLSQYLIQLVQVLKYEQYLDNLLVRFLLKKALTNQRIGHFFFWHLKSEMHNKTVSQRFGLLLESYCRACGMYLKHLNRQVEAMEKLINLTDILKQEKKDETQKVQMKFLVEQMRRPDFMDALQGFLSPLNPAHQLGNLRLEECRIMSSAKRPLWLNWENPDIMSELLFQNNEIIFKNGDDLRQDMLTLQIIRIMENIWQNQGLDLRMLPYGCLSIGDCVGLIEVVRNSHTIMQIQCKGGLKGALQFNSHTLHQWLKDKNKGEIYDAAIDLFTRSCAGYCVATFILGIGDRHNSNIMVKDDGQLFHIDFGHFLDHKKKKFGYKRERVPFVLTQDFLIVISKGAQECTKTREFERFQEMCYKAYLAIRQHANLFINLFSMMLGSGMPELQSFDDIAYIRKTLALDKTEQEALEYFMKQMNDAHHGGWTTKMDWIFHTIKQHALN
# CAMKK2, sequence (Q96RR4 whole entry): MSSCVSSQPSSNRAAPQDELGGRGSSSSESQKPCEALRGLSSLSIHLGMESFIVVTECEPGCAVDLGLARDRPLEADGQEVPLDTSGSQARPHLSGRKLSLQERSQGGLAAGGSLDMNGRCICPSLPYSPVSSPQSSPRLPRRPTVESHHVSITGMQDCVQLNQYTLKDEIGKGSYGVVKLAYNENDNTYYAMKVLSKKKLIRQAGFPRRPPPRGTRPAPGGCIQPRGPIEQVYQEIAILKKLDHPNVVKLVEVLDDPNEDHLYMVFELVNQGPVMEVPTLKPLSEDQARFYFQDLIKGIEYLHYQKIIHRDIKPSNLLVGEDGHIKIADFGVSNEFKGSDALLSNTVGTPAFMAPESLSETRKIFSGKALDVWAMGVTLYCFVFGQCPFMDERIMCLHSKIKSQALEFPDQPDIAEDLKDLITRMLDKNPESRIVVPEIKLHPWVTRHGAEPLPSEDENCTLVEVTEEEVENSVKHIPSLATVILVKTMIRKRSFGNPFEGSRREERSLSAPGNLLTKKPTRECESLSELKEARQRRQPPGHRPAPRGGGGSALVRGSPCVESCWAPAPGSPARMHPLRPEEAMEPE
# MEK3, sequence (P46734 whole entry): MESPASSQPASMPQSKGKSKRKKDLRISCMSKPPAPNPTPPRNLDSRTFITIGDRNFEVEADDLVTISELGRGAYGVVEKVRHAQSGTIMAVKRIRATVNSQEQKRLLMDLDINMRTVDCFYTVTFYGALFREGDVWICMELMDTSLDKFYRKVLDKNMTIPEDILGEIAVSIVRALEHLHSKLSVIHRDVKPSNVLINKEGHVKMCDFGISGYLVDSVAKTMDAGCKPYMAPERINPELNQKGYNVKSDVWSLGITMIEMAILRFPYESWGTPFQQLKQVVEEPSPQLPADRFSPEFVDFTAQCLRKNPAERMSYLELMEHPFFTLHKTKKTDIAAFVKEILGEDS
# DAPK3, sequence (O43293 whole entry): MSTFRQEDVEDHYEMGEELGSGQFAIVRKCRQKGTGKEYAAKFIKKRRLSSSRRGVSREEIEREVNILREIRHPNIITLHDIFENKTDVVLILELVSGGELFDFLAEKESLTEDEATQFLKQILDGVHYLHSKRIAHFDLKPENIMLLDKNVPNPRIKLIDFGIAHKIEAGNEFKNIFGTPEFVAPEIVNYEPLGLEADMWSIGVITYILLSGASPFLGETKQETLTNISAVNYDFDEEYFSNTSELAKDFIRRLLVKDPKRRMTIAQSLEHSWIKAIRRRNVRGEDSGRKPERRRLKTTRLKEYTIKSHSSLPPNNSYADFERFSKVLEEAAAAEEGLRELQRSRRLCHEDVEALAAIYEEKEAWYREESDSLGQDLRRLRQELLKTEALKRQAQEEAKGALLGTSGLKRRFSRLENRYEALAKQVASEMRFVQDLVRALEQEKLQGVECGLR
# EPHB1, sequence (P54762 18-984): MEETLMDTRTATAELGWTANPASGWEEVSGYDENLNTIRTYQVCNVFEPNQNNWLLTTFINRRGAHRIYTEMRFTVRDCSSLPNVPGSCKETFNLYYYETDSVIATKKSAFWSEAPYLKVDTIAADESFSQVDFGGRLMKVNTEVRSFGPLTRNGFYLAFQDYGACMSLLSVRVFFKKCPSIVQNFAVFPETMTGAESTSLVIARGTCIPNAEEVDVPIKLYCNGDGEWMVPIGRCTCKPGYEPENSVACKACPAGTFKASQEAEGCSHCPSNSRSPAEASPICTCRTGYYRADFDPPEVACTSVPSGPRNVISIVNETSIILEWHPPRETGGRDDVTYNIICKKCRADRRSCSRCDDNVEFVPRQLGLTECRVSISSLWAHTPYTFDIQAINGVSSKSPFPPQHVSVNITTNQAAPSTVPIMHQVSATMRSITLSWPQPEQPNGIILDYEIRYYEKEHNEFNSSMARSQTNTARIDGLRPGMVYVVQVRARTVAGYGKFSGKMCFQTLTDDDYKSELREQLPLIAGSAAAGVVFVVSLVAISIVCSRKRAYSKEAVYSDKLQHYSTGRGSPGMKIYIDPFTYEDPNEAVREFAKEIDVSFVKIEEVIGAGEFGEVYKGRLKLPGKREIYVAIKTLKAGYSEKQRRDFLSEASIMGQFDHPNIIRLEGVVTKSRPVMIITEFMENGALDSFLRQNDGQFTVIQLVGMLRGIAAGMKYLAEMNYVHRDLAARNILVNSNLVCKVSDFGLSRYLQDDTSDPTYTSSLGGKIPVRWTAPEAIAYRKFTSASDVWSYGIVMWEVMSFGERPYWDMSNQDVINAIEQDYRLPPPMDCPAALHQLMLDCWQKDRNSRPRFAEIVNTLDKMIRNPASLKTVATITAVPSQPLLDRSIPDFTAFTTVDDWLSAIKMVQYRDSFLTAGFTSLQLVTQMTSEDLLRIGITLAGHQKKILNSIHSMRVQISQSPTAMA
# EPHA8, sequence (P29322 28-1005): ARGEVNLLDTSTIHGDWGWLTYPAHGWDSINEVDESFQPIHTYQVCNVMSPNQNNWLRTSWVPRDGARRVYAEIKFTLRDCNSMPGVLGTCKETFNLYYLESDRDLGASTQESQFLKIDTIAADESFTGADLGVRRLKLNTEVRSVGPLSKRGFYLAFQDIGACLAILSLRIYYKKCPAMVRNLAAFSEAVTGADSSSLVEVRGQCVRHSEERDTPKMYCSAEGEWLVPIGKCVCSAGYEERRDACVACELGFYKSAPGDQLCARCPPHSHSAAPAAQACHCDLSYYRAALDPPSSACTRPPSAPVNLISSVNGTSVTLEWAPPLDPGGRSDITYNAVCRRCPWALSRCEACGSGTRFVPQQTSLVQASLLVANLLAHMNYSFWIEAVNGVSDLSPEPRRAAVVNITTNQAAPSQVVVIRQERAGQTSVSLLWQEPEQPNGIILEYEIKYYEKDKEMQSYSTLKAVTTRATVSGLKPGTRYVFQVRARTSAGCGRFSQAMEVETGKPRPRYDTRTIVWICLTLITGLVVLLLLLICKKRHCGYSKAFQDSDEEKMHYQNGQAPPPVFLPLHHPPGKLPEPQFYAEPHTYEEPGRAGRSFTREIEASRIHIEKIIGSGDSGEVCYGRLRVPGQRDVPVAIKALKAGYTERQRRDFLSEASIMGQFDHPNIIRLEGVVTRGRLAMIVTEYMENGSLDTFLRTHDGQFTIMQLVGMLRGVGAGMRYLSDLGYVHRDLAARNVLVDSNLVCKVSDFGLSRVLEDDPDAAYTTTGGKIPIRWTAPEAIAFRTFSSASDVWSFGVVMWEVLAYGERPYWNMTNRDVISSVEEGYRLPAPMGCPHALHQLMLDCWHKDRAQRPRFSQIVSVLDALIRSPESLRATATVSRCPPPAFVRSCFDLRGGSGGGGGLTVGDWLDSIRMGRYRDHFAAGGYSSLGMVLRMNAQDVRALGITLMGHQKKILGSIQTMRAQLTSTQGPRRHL
# CLK2, sequence (P49760 whole entry): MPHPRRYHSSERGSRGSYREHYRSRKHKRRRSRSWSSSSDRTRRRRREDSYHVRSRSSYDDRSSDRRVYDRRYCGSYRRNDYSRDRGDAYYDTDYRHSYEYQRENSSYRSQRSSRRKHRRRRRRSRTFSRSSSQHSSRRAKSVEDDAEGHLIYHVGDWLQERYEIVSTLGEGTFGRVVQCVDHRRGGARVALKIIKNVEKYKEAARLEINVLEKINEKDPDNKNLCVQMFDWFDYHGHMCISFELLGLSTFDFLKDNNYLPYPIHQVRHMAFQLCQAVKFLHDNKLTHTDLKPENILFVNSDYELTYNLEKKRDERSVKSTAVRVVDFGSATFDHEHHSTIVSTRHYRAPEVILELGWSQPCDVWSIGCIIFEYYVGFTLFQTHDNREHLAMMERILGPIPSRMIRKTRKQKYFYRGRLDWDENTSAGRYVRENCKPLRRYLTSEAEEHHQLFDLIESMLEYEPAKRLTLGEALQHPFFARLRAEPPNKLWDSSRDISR
smiles,measurement,setting,value
"O=C1CCC(N2C(=O)c3cccc(NCCCCCCCCNC(=O)N4CC[C@H](NC5=Nc6cc(F)ccc6N(CC(F)F)c6ccc(Cl)cc65)C4)c3C2=O)C(=O)N1 (stereo partly drawn) [BJG-05-039, (3S)-3-((2-Chloro-5-(2,2-difluoroethyl)-8-fluoro-5H-dibenzo[b,e][1,4]diazepin-11-yl)amino)-N-(8-((2-(2,6-dioxopiperidin-3-yl)-1,3-dioxoisoindolin-4-yl)amino)octyl)pyrrolidine-1-carboxamide]",remaining binding at 10 µM,DAPK1,47%
same,remaining binding at 10 µM,MYO3B,88%
same,remaining binding at 10 µM,DAPK3,40%
same,remaining binding at 10 µM,CLK2,95%
same,remaining binding at 10 µM,PIM3,78%
same,remaining binding at 10 µM,FRK,67%
same,remaining binding at 10 µM,p38-beta,97%
same,remaining binding at 10 µM,MAP4K2,89%
same,remaining binding at 10 µM,PKMYT1,54%
same,remaining binding at 10 µM,PRKCQ,77%
same,remaining binding at 10 µM,PIK3CA,60%
same,remaining binding at 10 µM,HIPK1,100%
same,remaining binding at 10 µM,[1],42%
same,remaining binding at 10 µM,PIM2,82%
same,remaining binding at 10 µM,TAOK2,93%
same,remaining binding at 10 µM,MELK,81%
same,remaining binding at 10 µM,WNK2,89%
same,remaining binding at 10 µM,HASPIN,90%
same,remaining binding at 10 µM,PDPK1,86%
same,remaining binding at 10 µM,MLK3,88%
same,remaining binding at 10 µM,PIK3CG,77%
same,remaining binding at 10 µM,SBK1,82%
same,remaining binding at 10 µM,[2],59%
same,remaining binding at 10 µM,NEK7,79%
same,remaining binding at 10 µM,PAK6,99%
same,remaining binding at 10 µM,BIKE,74%
same,remaining binding at 10 µM,WNK3,89%
same,remaining binding at 10 µM,MYLK4,100%
same,remaining binding at 10 µM,MEK3,94%
same,remaining binding at 10 µM,EPHA8,84%
same,remaining binding at 10 µM,BMPR1A,98%
same,remaining binding at 10 µM,AXL,49%
same,remaining binding at 10 µM,[3],100%
same,remaining binding at 10 µM,EPHA2,82%
same,remaining binding at 10 µM,CAMKK2,46%
same,remaining binding at 10 µM,EPHB1,98%
same,remaining binding at 10 µM,FLT3(R834Q),100%
same,remaining binding at 10 µM,PFCDPK1(P. falciparum),98%
